From patent US9623111B2, “Pegylated artesunate derivative, pharmaceutical composition and use thereof” (Institute of Pharmacology and Toxicology Academy of …, priority 2012, dated 2017)

Experiments:
Plasmodium berghei = experiment: Evaluation of anti-malarial effects (murine malaria 4 day inhibition method, infected Kunming mice); format: in vivo; conditions: intraperitoneal injection, dose equivalent to 10 mg/kg artesunate, 4 administrations, D4, mean (range)
Procedure: Preparation of animals and pathological models: Kunming mice were purchased from the Animal Center of the Military Medical Science Academy of the PLA, body weight 20±2 g, female, conventionally raised, free diet. The mice were inoculated 1×10^7 plasmodia via intraperitoneal injection on the test day (DO) to infect red blood cells to establish murine malaria infection models.
Dosage regimen: the solutions of artesunate and PEGlyation derivatives thereof were diluted with injection water to a concentration equivalent to 1 mg/ml artesunate, and each mouse was administrated by 0.2 ml intraperitoneal injection (a dose equivalent to 10 mg/kg artesunate). First administration was performed 3 hours after the mice were infected, then administrated once per 24 hours, until the 3rd day (D3) after infection, that was, totally administrated for 4 times. The placebo control group was injected with physiological saline of same volume.
On the 4th day (D4) after administration of 10 mg/kg body weight artesunate and its PEGlyation derivatives, their inhibition rates to Plasmodium berghei were all 80% or more, and there was no significant difference of inhibition rate between the derivatives and artesunate (Table 1).

[1] = Determination of drug-time curve in vivo (serum dihydroartemisinin by LC-MS after intravenous injection); conditions: SD rats, single intravenous (caudal vein) injection, dose equivalent to 10 mg/kg artesunate
Procedure: Samples: Artesunate, Compounds 1-4.
Preparation of samples: artesunate was dissolved with 5% NaHCO3 physiological saline to obtain 10 mg/ml colorless pellucid solution; Compound 1 was dissolved with injection physiological saline to prepare a colorless pellucid solution containing equivalently 10 mg/ml artesunate.
Animals: SD rats were purchased from the Animal Center of the Military Medical Science Academy of the PLA, body weight 200±10 g, male, conventionally raised, free diet.
Experimental method: solutions of artesunate and Compound 1 samples were administrated to each rat by intravenous injection in an amount of 0.2 ml (a dose equivalent to 10 mg/kg artesunate). Blood samples were collected at 0 min, 10 min, 20 min, 30 min, 45 min, 1 hr, 1.5 hr, 2 hr, 2.5 hr, 3 hr, 4 hr, 6 hr, 8 hr, 10 hr, respectively, and serum concentration of dihydroartemisinin were measured by LC-MS method.
Experimental Results: See FIG. 1.

| Compound | inhibition rates to Plasmodium berghei, Mean (column group headed Parasitemia (%)) (Plasmodium berghei) | half-life extended in comparison with artesunate [1] |
| --- | --- | --- |
| C[C@H]1[C@H](OC(=O)CCC(=O)O)O[C@@H]2O[C@@]3(C)CC[C@H]4[C@H](C)CC[C@@H]1[C@@]24OO3 [Artesunate] | 84.0(76.0-94.6) % | – |
| [(Artesunate-)2-Lys-]2-PEG20k [Compound 1] | 87.2(82.7-92.7) % | about 5 times |
| mPEG20k-Lys-(Artesunate)2 [Compound 2] | 87.0(79.3-97.4) % | – |
| mPEG20k-Lys2-(Artesunate)4 [Compound 3] | 92.1(87.8-95.1) % | – |
| Artesunate-NH-PEG20k-NH-Artesunate [Compound 4] | 80.8(79.7-87.0) % | – |
